A short description of series [1]: Efflux ratio of apparent permeability in human Caco-2 cells. It is filed as ADME, cell-based.
A short description of series [2]: AUC (0 to last) in mouse at 10 mg/kg, po. It is filed as ADME, organism-based. Set-up: time 0 - last, route oral, dose 10 mg/kg. The note with it: in vivo.
Series [3] addresses T1, Eukaryotic translation initiation factor 2-alpha kinase 3 (Homo sapiens, UniProt Q9NZJ5).
T1 sequence (Q9NZJ5 whole entry): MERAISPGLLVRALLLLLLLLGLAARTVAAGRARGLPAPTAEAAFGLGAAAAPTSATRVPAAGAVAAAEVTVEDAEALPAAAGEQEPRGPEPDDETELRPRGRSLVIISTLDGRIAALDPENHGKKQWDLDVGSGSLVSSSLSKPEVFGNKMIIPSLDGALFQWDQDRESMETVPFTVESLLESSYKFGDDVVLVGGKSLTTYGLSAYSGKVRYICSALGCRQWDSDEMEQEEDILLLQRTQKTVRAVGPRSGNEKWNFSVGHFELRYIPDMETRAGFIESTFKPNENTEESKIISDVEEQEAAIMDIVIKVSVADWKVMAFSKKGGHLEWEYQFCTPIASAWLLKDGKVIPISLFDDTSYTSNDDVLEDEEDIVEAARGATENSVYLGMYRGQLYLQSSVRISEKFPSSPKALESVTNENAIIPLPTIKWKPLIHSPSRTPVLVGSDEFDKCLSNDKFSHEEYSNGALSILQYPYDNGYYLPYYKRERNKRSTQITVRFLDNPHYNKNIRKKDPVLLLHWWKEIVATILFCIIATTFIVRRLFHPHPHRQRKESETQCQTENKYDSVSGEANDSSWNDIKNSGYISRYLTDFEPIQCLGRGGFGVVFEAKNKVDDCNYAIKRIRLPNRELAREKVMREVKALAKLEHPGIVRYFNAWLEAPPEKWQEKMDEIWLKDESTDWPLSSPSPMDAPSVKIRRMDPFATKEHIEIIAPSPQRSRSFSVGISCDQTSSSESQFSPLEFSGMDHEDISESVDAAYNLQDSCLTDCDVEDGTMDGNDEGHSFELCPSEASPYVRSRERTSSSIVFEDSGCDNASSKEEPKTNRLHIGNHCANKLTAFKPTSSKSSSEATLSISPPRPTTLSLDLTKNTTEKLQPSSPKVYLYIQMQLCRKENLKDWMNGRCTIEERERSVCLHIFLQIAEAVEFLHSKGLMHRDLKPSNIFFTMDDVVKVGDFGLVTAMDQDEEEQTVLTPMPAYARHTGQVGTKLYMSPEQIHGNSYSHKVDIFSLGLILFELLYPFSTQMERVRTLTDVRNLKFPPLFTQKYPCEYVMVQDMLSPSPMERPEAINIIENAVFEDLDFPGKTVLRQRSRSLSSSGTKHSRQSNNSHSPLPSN
The series is described as follows: Inhibition of human His-tagged PERK expressed in Escherichia coli assessed as eIF2alpha phosphorylation by TR-FRET assay.

Series [4] addresses Mast/stem cell growth factor receptor Kit (Homo sapiens) (UniProt P10721). The series is described as follows: Inhibition of wild-type human partial length KIT (I571 to D952 residues) expressed in bacterial expression system assessed as residual activity at 10 uM by Kinomescan method relative to control.
In series [5] the target is Tyrosine-protein kinase receptor UFO (Homo sapiens) (UniProt P30530). Description: Inhibition of wild-type human partial length AXL (R497 to Y821 residues) expressed in bacterial expression system assessed as residual activity at 10 uM by Kinomescan method relative to control.
Chain of Tyrosine-protein kinase receptor UFO (Homo sapiens) (P30530 whole entry, the tested form may be a part): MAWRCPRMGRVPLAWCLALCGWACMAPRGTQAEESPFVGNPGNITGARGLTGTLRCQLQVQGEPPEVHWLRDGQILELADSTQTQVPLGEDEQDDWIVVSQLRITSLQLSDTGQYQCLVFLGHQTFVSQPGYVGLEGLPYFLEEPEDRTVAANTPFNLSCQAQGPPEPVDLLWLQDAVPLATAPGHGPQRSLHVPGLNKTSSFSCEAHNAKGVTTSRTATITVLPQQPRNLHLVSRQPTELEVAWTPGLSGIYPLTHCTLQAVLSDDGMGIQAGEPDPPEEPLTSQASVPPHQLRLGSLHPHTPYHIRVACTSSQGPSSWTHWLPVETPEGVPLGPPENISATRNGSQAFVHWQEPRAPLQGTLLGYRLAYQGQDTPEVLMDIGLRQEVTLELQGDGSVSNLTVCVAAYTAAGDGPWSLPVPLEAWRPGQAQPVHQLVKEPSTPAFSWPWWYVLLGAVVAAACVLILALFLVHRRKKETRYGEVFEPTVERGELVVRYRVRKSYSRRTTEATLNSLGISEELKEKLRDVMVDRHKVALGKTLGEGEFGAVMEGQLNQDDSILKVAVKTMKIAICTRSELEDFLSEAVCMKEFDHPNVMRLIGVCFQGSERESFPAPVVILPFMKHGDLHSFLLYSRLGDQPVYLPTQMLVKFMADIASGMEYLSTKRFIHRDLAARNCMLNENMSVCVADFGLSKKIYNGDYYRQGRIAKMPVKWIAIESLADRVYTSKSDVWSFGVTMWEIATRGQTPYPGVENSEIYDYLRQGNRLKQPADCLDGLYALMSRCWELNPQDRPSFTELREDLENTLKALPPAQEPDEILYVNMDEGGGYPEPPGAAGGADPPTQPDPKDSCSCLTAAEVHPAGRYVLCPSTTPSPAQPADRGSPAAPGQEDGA
The nature of series [6]: Cmax in mouse at 10 mg/kg, po. It counts as ADME, organism-based. On the set-up: route oral, dose 10 mg/kg. The note with it: in vivo.
Series [7] in a line: Half life in rat hepatocytes. It counts as ADME, cell-based, Hepatocyte.
Series [8] can be described thus: Plasma protein binding in mouse. It counts as ADME, cell-free. The note with it: read-out: PPB (converted).
The next series has as its system 786-0. Description: Anticancer activity against human 786-0 cells xenografted in clear cell renal cell carcinoma mouse model assessed as tumor growth inhibition at 10 mg/kg measured at day 28 relative to control. Particulars: 786-0, 672 h, read-out: TGI. It is filed as functional.
The target in series [9] is Epithelial discoidin domain-containing receptor 1 (Homo sapiens) (UniProt Q08345). The series is described as follows: Inhibition of wild-type human partial length DDR1 (R565 to V876 residues) expressed in bacterial expression system assessed as residual activity at 10 uM by Kinomescan method relative to control.
Chain of Epithelial discoidin domain-containing receptor 1 (Homo sapiens) (Q08345 whole entry, the tested form may be a part): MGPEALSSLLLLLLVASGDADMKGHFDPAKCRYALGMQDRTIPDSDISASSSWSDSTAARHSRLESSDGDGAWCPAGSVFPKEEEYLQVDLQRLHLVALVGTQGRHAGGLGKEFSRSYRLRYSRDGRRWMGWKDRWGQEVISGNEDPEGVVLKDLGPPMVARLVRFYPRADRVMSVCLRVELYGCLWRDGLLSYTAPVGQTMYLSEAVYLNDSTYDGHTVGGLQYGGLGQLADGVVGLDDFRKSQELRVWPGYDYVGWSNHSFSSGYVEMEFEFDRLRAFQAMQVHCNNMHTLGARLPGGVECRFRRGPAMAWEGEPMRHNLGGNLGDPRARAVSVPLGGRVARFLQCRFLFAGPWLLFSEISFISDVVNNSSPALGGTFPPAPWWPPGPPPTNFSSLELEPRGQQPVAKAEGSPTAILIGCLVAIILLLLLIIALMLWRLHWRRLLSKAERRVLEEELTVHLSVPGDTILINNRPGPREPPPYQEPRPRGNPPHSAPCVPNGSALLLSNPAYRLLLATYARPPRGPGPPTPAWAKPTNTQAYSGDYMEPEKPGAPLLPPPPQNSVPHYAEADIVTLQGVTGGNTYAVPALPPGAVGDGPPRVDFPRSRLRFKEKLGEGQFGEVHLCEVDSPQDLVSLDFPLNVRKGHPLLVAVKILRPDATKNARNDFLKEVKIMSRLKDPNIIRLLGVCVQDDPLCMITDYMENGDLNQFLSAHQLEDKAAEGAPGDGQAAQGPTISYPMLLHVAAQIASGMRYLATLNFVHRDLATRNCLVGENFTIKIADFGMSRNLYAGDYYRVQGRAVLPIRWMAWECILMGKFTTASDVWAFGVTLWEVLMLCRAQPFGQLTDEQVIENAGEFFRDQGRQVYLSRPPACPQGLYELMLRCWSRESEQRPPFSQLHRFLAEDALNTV
Series [10] is described as follows: Aqueous solubility of the compound. It is filed as physicochemical. The note with it: buffer.
Series [11] is described as follows: Half life in human hepatocytes. It counts as ADME, cell-based, Hepatocyte.
Series [12] can be described thus: Half life in dog hepatocytes. It counts as ADME, cell-based, Canis lupus familiaris, Hepatocyte.
Series [13] addresses Aurora kinase B (Homo sapiens) (UniProt Q96GD4). Description: Inhibition of wild-type human partial length AURKB (D25 to A303 residues) expressed in mammalian expression system assessed as residual activity at 10 uM by Kinomescan method relative to control.
Series [14] is described as follows: Plasma protein binding in dog. It counts as ADME, cell-free, Canis lupus familiaris. The note with it: read-out: PPB (converted).
Series [15] is described as follows: Apparent permeability of the compound across apical to basolateral side in human Caco-2 cells. It counts as ADME, cell-based. Particulars: read-out: permeability.

pIC50: −log10 of the molar value. In brackets after ≈: the same amount, converted by molar mass.

Chain of Mast/stem cell growth factor receptor Kit (Homo sapiens) (P10721 whole entry, the tested form may be a part): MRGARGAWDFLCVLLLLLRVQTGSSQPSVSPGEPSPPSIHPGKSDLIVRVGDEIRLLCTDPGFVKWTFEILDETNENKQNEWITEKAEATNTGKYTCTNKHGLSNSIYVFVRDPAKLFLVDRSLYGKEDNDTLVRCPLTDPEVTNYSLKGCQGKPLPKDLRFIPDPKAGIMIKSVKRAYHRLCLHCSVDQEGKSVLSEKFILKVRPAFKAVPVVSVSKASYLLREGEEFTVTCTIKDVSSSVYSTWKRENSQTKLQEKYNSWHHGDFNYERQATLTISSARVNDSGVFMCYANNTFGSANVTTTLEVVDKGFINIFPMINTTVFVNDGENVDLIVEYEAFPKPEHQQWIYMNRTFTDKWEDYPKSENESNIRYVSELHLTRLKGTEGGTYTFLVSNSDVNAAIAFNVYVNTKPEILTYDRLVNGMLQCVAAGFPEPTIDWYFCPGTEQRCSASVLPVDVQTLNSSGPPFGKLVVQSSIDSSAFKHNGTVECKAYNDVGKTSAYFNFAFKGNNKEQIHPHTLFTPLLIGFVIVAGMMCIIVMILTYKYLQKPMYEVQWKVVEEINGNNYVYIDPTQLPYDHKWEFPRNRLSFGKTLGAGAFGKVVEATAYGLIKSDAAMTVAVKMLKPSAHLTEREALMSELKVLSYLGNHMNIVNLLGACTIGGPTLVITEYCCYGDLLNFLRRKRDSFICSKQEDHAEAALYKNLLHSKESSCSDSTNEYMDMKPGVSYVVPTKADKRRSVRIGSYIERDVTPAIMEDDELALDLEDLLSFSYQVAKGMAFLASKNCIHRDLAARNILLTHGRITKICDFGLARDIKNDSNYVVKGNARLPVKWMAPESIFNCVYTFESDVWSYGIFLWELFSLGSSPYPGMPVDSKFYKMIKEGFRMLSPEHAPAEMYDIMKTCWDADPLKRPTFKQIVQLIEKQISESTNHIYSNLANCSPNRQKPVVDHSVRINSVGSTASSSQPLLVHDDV
Chain of Aurora kinase B (Homo sapiens) (Q96GD4 whole entry, the tested form may be a part): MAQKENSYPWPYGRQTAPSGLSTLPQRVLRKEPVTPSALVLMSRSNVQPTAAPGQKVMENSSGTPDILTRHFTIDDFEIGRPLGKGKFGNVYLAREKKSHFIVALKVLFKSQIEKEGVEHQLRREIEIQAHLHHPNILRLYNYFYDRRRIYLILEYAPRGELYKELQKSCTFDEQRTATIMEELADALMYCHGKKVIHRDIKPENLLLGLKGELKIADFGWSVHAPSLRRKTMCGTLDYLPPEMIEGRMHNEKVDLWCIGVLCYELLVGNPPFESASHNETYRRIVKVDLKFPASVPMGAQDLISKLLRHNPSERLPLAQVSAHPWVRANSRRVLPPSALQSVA

As for `CCc1cc(NC(=O)[C@H](O)c2cc(F)cc(F)c2)ccc1-c1cnc(N)c(C(=O)NC(C)C)c1`, in [1], the efflux ratio is 2.3. This molecule displayed an AUC(0-t) in series [2] of 5150 ng·h/mL. The negative logarithm of the IC50 (pIC50) in series [3] is 8.70. Further, the Activity in series [4] was determined as 67%; in series [5], 70%; in series [9] it was 100%; in [13] it was 75%. For the same molecule, the highest level in [6] (Cmax) was 3350 ng/mL. The half-life was 0.233 h in [7], 5.17 h in series [11] and 8.22 h in [12]. In addition, the fraction unbound in [8] is 0.006; in [14], 0.002. For the same molecule, the inhibition in vivo at 10 mg/kg in the series on 786-0 was 40%. In [10], this molecule yielded a solubility of 10 µM (≈ 4.69 µg/mL). Moreover, the Papp A→B in [15] came to 22 ×10⁻⁶ cm/s.
